The values that follow come from BindingDB's records for PubMed 1325033 (Universit&Acute, 1992).

Values joined by “and” are separate entries in the source; they are usually repeats but may differ in a detail not shown here. Equal values may be shown once. Peptide text beside a SMILES is read from it.

The assay has as its target T1, Pituitary adenylate cyclase-activating polypeptide (Rattus norvegicus, UniProt P13589).
T1 sequence (P13589 whole entry): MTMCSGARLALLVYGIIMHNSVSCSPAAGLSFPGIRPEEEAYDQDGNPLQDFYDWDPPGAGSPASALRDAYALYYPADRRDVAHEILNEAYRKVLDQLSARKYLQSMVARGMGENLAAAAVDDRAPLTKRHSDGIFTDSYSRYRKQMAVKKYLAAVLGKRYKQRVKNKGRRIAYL
The term Ki denotes the dissociation constant of the complex between target and ligand, obtained from inhibition or displacement. Consider “H-TDSYSRYRKQMAVKKYLAAVLGKRYKQRVKNK-NH2 [PACAP(7-38)]”, for which the inhibition constant Ki was 25 nM and 150 nM.
Turning to “H-SNGIFTDSYSRYRKQMAVKKYLAAVL-NH2 [[Des-His1,Asn3]PACAP-27]”, the Ki was 1500 nM and 5000 nM.
In the case of “H-FTDSYSRYRKQMAVKKYLAAVL-NH2 [PACAP(5-27)]” it was 300 nM and 2000 nM; in that of `CCC(C)[C@H](NC(=O)CN)C(=O)N[C@@H](Cc1ccccc1)C(=O)N[C@H](C(=O)N[C@@H](CC(=O)O)C(=O)N[C@@H](CO)C(=O)N[C@@H](Cc1ccc(O)cc1)C(=O)N[C@@H](CO)C(=O)N[C@@H](CCCN=C(N)N)C(=O)N[C@@H](Cc1ccc(O)cc1)C(=O)N[C@@H](CCCN=C(N)N)C(=O)N[C@@H](CCCCN)C(=O)N[C@@H](CCC(N)=O)C(=O)N[C@@H](CCSC)C(=O)N[C@@H](C)C(=O)N[C@H](C(=O)N[C@@H](CCCCN)C(=O)N[C@@H](CCCCN)C(=O)N[C@@H](Cc1ccc(O)cc1)C(=O)N[C@@H](CC(C)C)C(=O)N[C@@H](C)C(=O)N[C@@H](C)C(=O)N[C@H](C(=O)N[C@@H](CC(C)C)C(=O)NCC(=O)N[C@@H](CCCCN)C(=O)N[C@@H](CCCN=C(N)N)C(=O)N[C@@H](Cc1ccc(O)cc1)C(=O)N[C@@H](CCCCN)C(=O)N[C@@H](CCC(N)=O)C(=O)N[C@@H](CCCN=C(N)N)C(=O)N[C@H](C(=O)N[C@@H](CCCCN)C(=O)N[C@@H](CC(N)=O)C(=O)N[C@@H](CCCCN)C(N)=O)C(C)C)C(C)C)C(C)C)[C@@H](C)O` (some centres not stated) [PACAP(4-38)] (HELM PEPTIDE1{G.[CCC(C)[C@H](N[*:1])C(=O)[*:2]].F.T.D.S.Y.S.R.Y.R.K.Q.M.A.V.K.K.Y.L.A.A.V.L.G.K.R.Y.K.Q.R.V.K.N.K.[am]}$$$$V2.0), 300 nM; in that of `CCC(C)[C@H](NC(=O)CNC(=O)[C@H](CC(=O)O)NC(=O)[C@@H](Cc1ccccc1)NC(=O)[C@@H](N)Cc1cnc[nH]1)C(=O)N[C@@H](Cc1ccccc1)C(=O)N[C@H](C(=O)N[C@@H](CC(=O)O)C(=O)N[C@@H](CO)C(=O)N[C@@H](Cc1ccc(O)cc1)C(=O)N[C@@H](CO)C(=O)N[C@@H](CCCN=C(N)N)C(=O)N[C@@H](Cc1ccc(O)cc1)C(=O)N[C@@H](CCCN=C(N)N)C(=O)N[C@@H](CCCCN)C(=O)N[C@@H](CCC(N)=O)C(=O)N[C@@H](CCSC)C(=O)N[C@@H](C)C(=O)N[C@H](C(=O)N[C@@H](CCCCN)C(=O)N[C@@H](CCCCN)C(=O)N[C@@H](Cc1ccc(O)cc1)C(=O)N[C@@H](CC(C)C)C(=O)N[C@@H](C)C(=O)N[C@@H](C)C(=O)N[C@H](C(=O)N[C@@H](CC(C)C)C(N)=O)C(C)C)C(C)C)[C@@H](C)O` (stereo partly drawn) [[D-Phe2]PACAP-27], 350 nM and 1000 nM.
On to “H-TDSYSRYRKQMAVKKYLAAVL-NH2 [PACAP(6-27)]”, for which the Ki is 4000 nM and > 10000 nM.
In the case of `CCC(C)[C@H](NC(=O)CNC(=O)[C@H](CC(=O)O)NC(=O)[C@@H](Cc1ccccc1)NC(=O)[C@@H](N)Cc1cnc[nH]1)C(=O)N[C@@H](Cc1ccccc1)C(=O)N[C@H](C(=O)N[C@@H](CC(=O)O)C(=O)N[C@@H](CO)C(=O)N[C@@H](Cc1ccc(O)cc1)C(=O)N[C@@H](CO)C(=O)N[C@@H](CCCN=C(N)N)C(=O)N[C@@H](Cc1ccc(O)cc1)C(=O)N[C@@H](CCCN=C(N)N)C(=O)N[C@@H](CCCCN)C(=O)N[C@@H](CCC(N)=O)C(=O)N[C@@H](CCSC)C(=O)N[C@@H](C)C(=O)N[C@H](C(=O)N[C@@H](CCCCN)C(=O)N[C@@H](CCCCN)C(=O)N[C@@H](Cc1ccc(O)cc1)C(=O)N[C@@H](CC(C)C)C(=O)N[C@@H](C)C(=O)N[C@@H](C)C(=O)N[C@H](C(=O)N[C@@H](CC(C)C)C(=O)NCC(=O)N[C@@H](CCCCN)C(=O)N[C@@H](CCCN=C(N)N)C(=O)N[C@@H](Cc1ccc(O)cc1)C(=O)N[C@@H](CCCCN)C(=O)N[C@@H](CCC(N)=O)C(=O)N[C@@H](CCCN=C(N)N)C(=O)N[C@H](C(=O)N[C@@H](CCCCN)C(=O)N[C@@H](CC(N)=O)C(=O)N[C@@H](CCCCN)C(N)=O)C(C)C)C(C)C)C(C)C)[C@@H](C)O` (stereo partly drawn) [[D-Phe2]PACAP-38] (HELM PEPTIDE1{H.[dF].D.G.[CCC(C)[C@H](N[*:1])C(=O)[*:2]].F.T.D.S.Y.S.R.Y.R.K.Q.M.A.V.K.K.Y.L.A.A.V.L.G.K.R.Y.K.Q.R.V.K.N.K.[am]}$$$$V2.0), the inhibitory constant (Ki) is 5 nM and 40 nM.
